# Non-standard residues stand in square brackets, D forms with d. Residues, ends and D or L forms follow the SMILES beside them. Abu = CC[C@H](N)C(=O)O
# Assays:
# DRB1*0701 = DRB1*0701 (Homo sapiens, UniProt P01903+P01911, A100R/A102G/A103Q/D57E/D86V/E43K/F76Y/K127E/L162R/M171V/P40G/Q125H/Q99D/R33Q/R42Y/R54Q/S133A/S66F/T210M/V115G/Y107V/Y59L/Y89S); test: biochemical
# DRB1*0401 = DRB1*0401 (Homo sapiens, UniProt P01903+P01911, A100K/A169T/F76Y/I96L/K127E/L162R/M171V/N62H/P40V/Q125Y/R42H/S133A/S149N/S66Y/V115G/V209L/W38E); test: biochemical
# A*0206 = A*0206 (Homo sapiens, UniProt P04439, D140Y/D185E/D98H/E176V/E277Q/F33Y/G131W/G231S/I119V/I121R/I166T/I218V/L300P/L318F/N151K/N90K/P208A/P217A/Q86G/Q94H/R138H/R169H/T345S); test: biochemical
# [1] = test system: 0.221A2.1 cell line, peptide-loaded target; test: Primary in vitro CTL induction, 51Cr release against targets pulsed with the induction peptide; details: Number of donors yielding a positive response/total tested; Table XXVIIb
# A*0202 = A*0202 (Homo sapiens, UniProt P04439, D140Y/D185E/D98H/E176V/E277Q/G131W/G231S/I119L/I121R/I166T/I218V/L180W/L300P/L318F/N151K/N90K/P208A/P217A/Q67R/Q86G/Q94H/R138H/R169H/T345S); test: biochemical
# [2] = test system: target cells pulsed with wild-type peptide; test: CTL recognition of targets pulsed with the wildtype peptide (51Cr release); format: cell-based, human; details: Number of donors yielding a positive response/total tested; Table XXVIIb
# A*0203 = A*0203 (Homo sapiens, UniProt P04439, A173T/D140Y/D185E/D98H/E277Q/G131W/G231S/I119V/I121R/I166T/I218V/L180W/L300P/L318F/N151K/N90K/P208A/P217A/Q86G/Q94H/R138H/R169H/T345S); test: biochemical
SMILES,IC50 (DRB1*0701) [µM],IC50 (DRB1*0401) [µM],IC50 (A*0206) [µM],CTL Peptide [1],IC50 (A*0202) [µM],CTL Wild-type [2],IC50 (A*0203) [µM]
CC[C@H](C)[C@H](NC(=O)[C@@H](NC(=O)[C@H](CC(C)C)NC(=O)[C@@H](NC(=O)[C@@H]1CCCN1C(=O)[C@H](CCCNC(=N)N)NC(=O)[C@H](CCCNC(=N)N)NC(=O)[C@H](CC(N)=O)NC(=O)[C@H](CCSC)NC(=O)CNC(=O)CNC(=O)[C@@H](N)CCSC)[C@@H](C)CC)[C@@H](C)O)C(=O)N[C@H](C(=O)N[C@H](C(=O)N[C@@H](CC(C)C)C(=O)O)[C@@H](C)O)[C@@H](C)CC [p53.243],> 10,> 10,–,–,–,–,–
CC[C@H](NC(=O)[C@H](Cc1ccccc1)NC(=O)[C@H](CCSC)NC(=O)[C@@H](N)CCCCN)C(=O)N[C@@H](CCC(N)=O)C(=O)N[C@@H](CC(C)C)C(=O)N[C@@H](C)C(=O)N[C@@H](CCCCN)C(=O)N[C@H](C(=O)O)C(C)C [p53.132B4V9] (H-KMF[Abu]QLAKV-OH),–,–,0.037,5/5,0.013,0/4,0.0091
CC[C@H](C)[C@H](NC(=O)[C@H](CCC(N)=O)NC(=O)[C@H](CC(C)C)NC(=O)[C@@H](NC(=O)[C@H](Cc1ccccc1)NC(=O)[C@H](Cc1ccc(O)cc1)NC(=O)[C@H](CCC(=O)O)NC(=O)CNC(=O)[C@@H](N)CC(=O)O)[C@@H](C)O)C(=O)N[C@@H](CCCNC(=N)N)C(=O)NCC(=O)N[C@@H](CCCNC(=N)N)C(=O)N[C@@H](CCC(=O)O)C(=O)N[C@@H](CCCNC(=N)N)C(=O)N[C@@H](Cc1ccccc1)C(=O)O [p53.324],> 10,> 10,–,–,–,–,–
CC[C@H](NC(=O)[C@H](Cc1ccccc1)NC(=O)[C@H](CCSC)NC(=O)[C@H](CCCCN)NC(=O)[C@H](CC(N)=O)NC(=O)[C@H](CC(C)C)NC(=O)[C@H](C)N)C(=O)N[C@@H](CCC(N)=O)C(=O)N[C@H](C(=O)O)C(C)C [p53.129B7V9] (H-ALNKMF[Abu]QV-OH),–,–,–,2/4,–,0/3,–
CC(C)C[C@H](NC(=O)[C@H](C)NC(=O)[C@H](CCCNC(=N)N)NC(=O)[C@@H](N)CCCCN)C(=O)N1CCC[C@H]1C(=O)N[C@@H](CC(N)=O)C(=O)N[C@@H](CC(N)=O)C(=O)N[C@H](C(=O)N[C@@H](CO)C(=O)N[C@@H](CO)C(=O)N[C@@H](CO)C(=O)N1CCC[C@H]1C(=O)N[C@@H](CCC(N)=O)C(=O)N1CCC[C@H]1C(=O)N[C@@H](CCCCN)C(=O)O)[C@@H](C)O [p53.305],> 10,> 10,–,–,–,–,–

# From patent publication US20040048790A1, “Inducing cellular immune responses to p53 using peptide and nucleic acid compositions” (priority 1999, published 2004)
